Reference: patent publication US20220306606A1, “MODULATOR OF CYSTIC FIBROSIS TRANSMEMBRANE CONDUCTANCE REGULATOR, PHARMACEUTICAL COMPOSITIONS, METHODS OF TREATMENT, AND PROCESS FOR MAKING THE MODULATOR” (Vertex Pharmaceuticals Incorporated, priority 2016, published 2022)
“Also recorded” adds a separate entry of the source. Read-outs that look alike come from different tables or passages of the source.

Columns and labels:
[1] = target: T1, F508del-CFTR (Homo sapiens, UniProt P13569, DEL508-508); experiment: Membrane potential optical (FLIPR) assay for F508del-CFTR modulators; assay type: cell-based; design: expressed in transfected cells; conditions: read-out: CFTRdF508 EC50
T1 sequence (P13569 with tags, fused parts or gaps DEL508-508): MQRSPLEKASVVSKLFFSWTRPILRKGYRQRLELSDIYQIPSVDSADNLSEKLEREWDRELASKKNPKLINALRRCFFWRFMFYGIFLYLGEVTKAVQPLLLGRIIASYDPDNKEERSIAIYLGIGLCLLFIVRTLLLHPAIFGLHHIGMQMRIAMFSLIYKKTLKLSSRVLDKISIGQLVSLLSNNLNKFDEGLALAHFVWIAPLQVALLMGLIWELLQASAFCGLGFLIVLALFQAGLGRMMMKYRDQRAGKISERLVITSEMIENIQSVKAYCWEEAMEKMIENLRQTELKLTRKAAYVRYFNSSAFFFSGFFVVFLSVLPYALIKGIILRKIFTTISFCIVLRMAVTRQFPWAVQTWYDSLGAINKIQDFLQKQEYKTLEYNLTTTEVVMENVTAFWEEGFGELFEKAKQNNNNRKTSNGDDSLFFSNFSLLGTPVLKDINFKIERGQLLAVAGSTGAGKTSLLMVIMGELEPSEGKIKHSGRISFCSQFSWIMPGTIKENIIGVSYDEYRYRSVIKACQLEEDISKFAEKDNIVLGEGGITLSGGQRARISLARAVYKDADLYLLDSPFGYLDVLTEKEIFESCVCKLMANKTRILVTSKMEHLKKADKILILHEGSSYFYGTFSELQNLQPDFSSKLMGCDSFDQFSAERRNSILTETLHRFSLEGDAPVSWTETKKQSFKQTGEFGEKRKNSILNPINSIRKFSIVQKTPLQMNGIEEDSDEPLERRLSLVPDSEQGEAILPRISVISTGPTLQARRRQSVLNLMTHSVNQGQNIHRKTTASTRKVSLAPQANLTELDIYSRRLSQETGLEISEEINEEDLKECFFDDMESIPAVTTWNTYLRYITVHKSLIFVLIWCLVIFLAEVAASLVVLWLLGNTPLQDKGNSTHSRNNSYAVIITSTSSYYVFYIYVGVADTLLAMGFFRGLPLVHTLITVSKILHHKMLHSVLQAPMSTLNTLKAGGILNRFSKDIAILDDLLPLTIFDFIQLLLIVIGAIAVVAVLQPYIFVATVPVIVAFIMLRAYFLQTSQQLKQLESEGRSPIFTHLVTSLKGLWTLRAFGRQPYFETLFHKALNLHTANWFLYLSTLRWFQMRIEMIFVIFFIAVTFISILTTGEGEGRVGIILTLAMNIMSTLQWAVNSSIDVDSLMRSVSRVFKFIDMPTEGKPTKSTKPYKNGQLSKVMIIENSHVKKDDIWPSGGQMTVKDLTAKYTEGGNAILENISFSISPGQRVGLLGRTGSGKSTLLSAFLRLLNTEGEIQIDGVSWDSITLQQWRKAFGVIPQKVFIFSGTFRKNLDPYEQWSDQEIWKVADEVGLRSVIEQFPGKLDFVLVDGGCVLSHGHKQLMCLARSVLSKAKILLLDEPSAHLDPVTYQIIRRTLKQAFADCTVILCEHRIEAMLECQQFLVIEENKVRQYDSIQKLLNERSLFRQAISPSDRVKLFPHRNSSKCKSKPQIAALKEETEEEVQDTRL
Description: Membrane Potential Optical Methods for Assaying Properties of F508del-CFIR Modulators
The assay utilizes fluorescent voltage sensing dyes to measure changes in membrane potential using a fluorescent plate reader (e.g., FLIPR III, Molecular Devices, Inc.) as a readout for increase in functional F508del in NIH 3T3 cells.
5A-A1. Identification of F508del-CTTR Modulators
To identify modulators of F508del, a fluorescence based HTS assay format was developed. This HTS assay utilizes fluorescent voltage sensing dyes to measure changes in membrane potential on the FLIPR III as a measurement for increase in gating (conductance) of F508del NIH 3T3 cells.
Bath Solution #1: (in mM) NaCl 160, KCl 4.5, CaCl2 2, MgCl2 1, HEPES 10, pH 7.4 with NaOH, Glucose 10.
Chloride-free bath solution: Chloride salts in Bath Solution #1 (above) are substituted with gluconate salts.
NIH3T3 mouse fibroblasts stably expressing F508del are used for optical measurements of membrane potential. The cells are maintained at 37° C. in 5% CO2 and 90% humidity in Dulbecco's modified Eagle's medium supplemented with 2 mM glutamine, 10% fetal bovine serum, 1×NEAR, β-ME, 1×pen/strep, and 25 mM HEPES in 175 cm^2 culture flasks, For all optical assays, the cells were seeded at 12,000 cells/well in 384-well matrigel-coated plates and cultured for 18-24 hrs at 37° C. for the potentiator assay. For the correction assays, the cells are cultured at 37° C. with and without compounds for 18-24 hours.

[2] = target: T2, Human Serum Albumin (HSA) (Homo sapiens, UniProt P02768); experiment: Chromatographic determination of Human Serum Albumin (HSA) binding; assay type: in vitro ADME; conditions: ChiralPak HSA column retention time converted to % HSA
T2 construct: purchased Sigma Aldrich 58469AST
T2 sequence (P02768 25-609): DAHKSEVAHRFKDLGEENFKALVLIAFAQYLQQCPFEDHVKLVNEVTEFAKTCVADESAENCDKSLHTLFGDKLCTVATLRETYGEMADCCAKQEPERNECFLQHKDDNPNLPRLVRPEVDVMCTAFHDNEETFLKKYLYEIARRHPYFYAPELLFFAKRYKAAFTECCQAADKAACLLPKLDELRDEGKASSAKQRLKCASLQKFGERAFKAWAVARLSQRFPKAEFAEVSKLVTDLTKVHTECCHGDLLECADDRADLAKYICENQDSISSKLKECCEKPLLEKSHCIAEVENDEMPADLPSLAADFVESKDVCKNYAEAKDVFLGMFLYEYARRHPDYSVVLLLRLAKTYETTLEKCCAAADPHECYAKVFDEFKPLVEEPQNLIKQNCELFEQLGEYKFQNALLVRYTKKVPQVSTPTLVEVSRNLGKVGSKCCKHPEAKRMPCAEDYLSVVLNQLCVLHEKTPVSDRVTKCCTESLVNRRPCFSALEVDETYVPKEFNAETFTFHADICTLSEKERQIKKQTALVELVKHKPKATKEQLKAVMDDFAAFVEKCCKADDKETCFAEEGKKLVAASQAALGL
Method: 5B. Chromatographic Determination of Human Serum Albumin (HSA) Assay
Chromatographic determination of Human Serum Albumin (HSA) values was performed on a UPLC-MS system using a ChiralPak® HSA column (p/n: 58469AST) from Sigma Aldrich. Mobile phase A consisted of 50 mM ammonium acetate buffer in water adjusted to pH=7.4, and mobile phase B was 2-propanol. The column compartment was kept at constant temperature of 30° C. Determination of retention time on the HSA column was performed by injecting […] of 0.5 mM of compound (in DMSO) using a linear gradient from 0%-30% B in 2.5 minutes, followed by a hold at 30%B for 2 minutes, and the final equilibration step from 30%-0% B in 1.5 minutes, for a total run time of 6 minutes. Flow rate was kept constant throughout the gradient and set to 1.8 mL/min. Compound retention time on the HSA column was converted to % HSA values according to a previously published protocol (Valko, et. al, 2003) correlating column retention times to standard plasma protein binding (PPB) values obtained from dialysis experiments. HSA data for certain compounds are summarized below in Table 8 below.
Valko, K., Nunhuck, S., Bevan, C., Abraham, M. H., Reynolds, D. P. Fast Gradient HPLC Method to Determine Compounds Binding to Human Serwn Albumin. Relationships with Octanol/Water and. Immobilized Artificial Membrane Lipophilicity. J. of Pharm. Sci. 2003, 92, 2236-2248.

[3] = Rat IV and PO PK studies; assay type: in vivo; conditions: male Sprague-Dawley rats, oral 3 mg/kg
Method: 5C. Experimental Protocol for Rat IV and PO PK Studies
The tested compound was administered to male Sprague-Dawley rats as a single nominal intravenous dose of 3.0 mg/kg as a solution in 10% NMP, 10% solutol, 15% EtOH, 35% PEG400 and 30% D5W. The tested compound was also administered to male Sprague-Dawley rats at single nominal oral dose of 3 mg/kg as a solution in 5% NMP, 30% PEG400, 10% TPGS, 5% PVP-K30 at 5 mL/kg dose volume. Analyses of plasma and dose preparations were performed using LC/MS/MS.
Plasma concentration-time profiles of the tested compound in Sprague-Dawley rats at scheduled (nominal) sampling times were analyzed by noncompartmental pharmacokinetic methods using PK function within Watson LIMS software, Version 7.4.2 (Thermo Scientific Inc, Waltham, Mass.). AUC values were calculated using the linear trapezoidal rule.

[4] = target: T1, F508del-CFTR; experiment: Ussing chamber chloride transport in HBE cells; assay type: cell-based; design: CF-HBE were isolated from patients homozygous for F508del; endogenous in cells; host or cells: primary human bronchial epithelial (HBE) cells, F508del/F508del
Method: Ussing chamber experiments were performed on polarized airway epithelial cells expressing F508del to further characterize the F508del modulators identified in the optical assays. Non-CF and CF airway epithelia were isolated from bronchial tissue, cultured as previously described (Galietta, L. J. V., Lantero, S., Gazzolo, A., Sacco, O., Romano, L., Rossi, G. A., & Zegarra-Moran, O. (1998) In Vitro Cell Dev. Biol. 34, 478-481), and plated onto Costar® Snapwell™ filters that were precoated with NIH3T3-conditioned media. After four days the apical media was removed and the cells were grown at an air liquid interface for >14 days prior to use.
HBE grown on Costar® Snnapwell™ cell culture inserts were mounted in an Ussing chamber (Physiologic Instruments, Inc., San Diego, Calif.), and the transepithelial resistance and short-circuit current in the presence of a basolateral to apical […] gradient (ISC) were measured using a voltage-clamp system (Department of Bioengineering, University of Iowa, Iowa). Briefly, HBE were examined under voltage-clamp recording conditions (Vhold=0 mV) at 37° C. The basolateral solution contained (in mM) 145 NaCl, 0.83 K2HPO4, 3.3 KH2PO4, 1.2 MgCl2, 1.2 CaCl2, 10 Glucose, 10 HEPES (pH adjusted to 7.35 with NaOH) and the apical solution contained (in mM) 145 NaGluconate, 1.2 MgCl2, 1.2 CaCl2, 10 glucose, 10 HEPES (pH adjusted to 7.35 with NaOH).
5A-A2. […]

[5] = target: T1, F508del-CFTR; experiment: F508del-CFTR processing and trafficking in vitro (170 to 180 kDa band); assay type: cell-based; design: CF-HBE were isolated from patients homozygous for F508del; endogenous in cells; host or cells: primary human bronchial epithelial (HBE) cells, F508del/F508del
Method: The CFTR protein delivered to the cell surface by Compound 1 alone or in combination with Compound II (Compound 1/Compound II) was potentiated by Compound III.
Incubation of F508del/F508del-HBE cells for 16 to 24 hours with 1 μM Compound 1 alone or in combination with […].

[6] = Table 6, F508del NIH 3T3 cells, assay of Example 5A-A1

CC1CC(C)(C)N2c3nc(-n4ccc(OCCC5(C(F)(F)F)CC5)n4)ccc3C(=O)OC12 (stereo not shown)
EC50 ([1]; Table 7, Compound 1 and its metabolites): > 30 µM

C[C@@H]1CN(c2nc(-n3ccc(OCC4(C(F)(F)F)CC4)n3)ccc2C(=O)NS(=N)(=O)c2ccccc2)C(C)(C)C1 (mixture of isomers)
HSA binding [2]: 98.%

C[C@@H]1CN(c2nc(-n3ccc(OCC(C)(C)C)n3)ccc2C(=O)NS(=O)(=O)c2cccnc2N)C(C)(C)C1 [Comp. A, reference compound]
Rat po % F [3]: 28%

C[C@@H]1CN(c2nc(-n3ccc(OCCC4(C(F)(F)F)CC4)n3)ccc2C(=O)NS(=O)(=O)c2ccccc2)C(C)(C)C1 [Compound 1, N-(benzenesulfonyl)-6-[3-[2-[1-(trifluoromethyl)cyclopropyl]ethoxy]pyrazol-1-yl]-2-[(4S)-2,2,4-trimethylpyrrolidin-1-yl]pyridine-3-carboxamide]
chloride transport ([4]; Ussing Chamber, F508del/F508del-HBE cells, listed as Compound I): enhanced chloride transport; also recorded: additive to the effect of Compound II | Rat po % F [3]: 63% | steady-state levels, fold of untreated levels ([5]; F508del/F508del-HBE cells, 16 to 24 hours, 1 μM Compound 1 alone): 6.5 fold | processing and trafficking of F508del-CFTR ([5]; in vitro): CFTR corrector

C[C@@H]1CN(c2nc(-n3ccc(OCCC4(C(F)(F)F)CC4)n3)ccc2C(=O)NS(=O)(=O)c2cccc(F)c2)C(C)(C)C1 [Compound 5]
Rat po % F [3]: 50%

C[C@@H]1CN(c2nc(-n3ccc(OCC4(C(F)(F)F)CCC4)n3)ccc2C(=O)NS(=O)(=O)c2ccccc2)C(C)(C)C1 [Compound 10, N-(Benzenesulfonyl)-6-[3-[[1-(trifluoromethyl)cyclobutyl]methoxy]pyrazol-1-yl]-2-[(4S)-2,2,4-trimethylpyrrolidin-1-yl]pyridine-3-carboxamide]
Rat po % F [3]: 41%

C[C@@H]1CN(c2nc(-n3ccc(OCC4(C(F)(F)F)CC4)n3)ccc2C(=O)NS(=O)(=O)c2ccccc2)C(C)(C)C1 [Compound 14, N-(Benzeuesulfonyl)-6-[3-[[1-(trifluoromethyl)cyclopropyl]methoxy]pyrazol-1-yl]-2-[(4S)-2,2,4-trimethylpyrrolidin-1-yl]pyridine-3-carboxamide]
Rat po % F [3]: 58%

C[C@@H]1CN(c2nc(-n3ccc(OCC4(C(F)(F)F)CC4)n3)ccc2C(=O)NS(=O)(=O)c2ccccc2C#N)C(C)(C)C1 [Compound 26, N-(2-Cyanophenyl)sulfonyl-6-[3-[[1-(trifluoromethyl)cyclopropyl]methoxy]pyrazol-1-yl]-2-[(4S)-2,2,4-trimethylpyrrolidin-1-yl]pyridine-3-carboxamide]
EC50 [1, 6]: < 0.1 µM

C[C@@H]1CN(c2nc(-n3ccc(OCC4(C(F)(F)F)CC4)n3)ccc2C(=O)NS(=O)(=O)c2ccc(F)cc2)C(C)(C)C1 [Compound 52, N-(4-fluorophenyl)sulfonyl-6-[3-[[1-(trifluoromethyl)cyclopropyl]methoxy]pyrazol-1-yl]-2-[(4S)-2,2,4-trimethylpyrrolidin-1-yl]pyridine-3-carboxamide]
EC50 [1, 6]: 0.1 to 1 µM

CC(C)(C)c1cc(C(C)(C)C)c(NC(=O)c2c[nH]c3ccccc3c2=O)cc1O [Compound III, N-(5-hydroxy-2,4-di-tert-butyl-phenyl)-4-oxo-1H-quinoline-3-carboxamide, reference compound]
potentiation of F508del-CFTR delivered to the cell surface ([4]; CFTR delivered by Compound 1 alone or in combination with Compound II): potentiated
